# Target: T1, human CRHR2-alpha (Homo sapiens, UniProt Q13324)
# T1 construct: host or cells: CHO-K1
# T1 sequence (Q13324 1-411): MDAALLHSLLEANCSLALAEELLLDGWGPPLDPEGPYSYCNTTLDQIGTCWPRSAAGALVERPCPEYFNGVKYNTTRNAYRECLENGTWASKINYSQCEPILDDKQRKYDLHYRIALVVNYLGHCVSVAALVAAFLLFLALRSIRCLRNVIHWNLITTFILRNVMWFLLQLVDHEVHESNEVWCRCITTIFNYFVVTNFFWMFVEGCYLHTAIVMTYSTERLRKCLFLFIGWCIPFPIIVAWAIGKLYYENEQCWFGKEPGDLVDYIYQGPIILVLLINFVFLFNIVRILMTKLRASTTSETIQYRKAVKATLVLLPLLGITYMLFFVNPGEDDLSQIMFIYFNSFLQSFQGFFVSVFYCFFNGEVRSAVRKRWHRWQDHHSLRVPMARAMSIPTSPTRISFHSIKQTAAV
# Assay: cAMP functional assay for human CRHR2 (LANCE Ultra TR-FRET)
# Assay type: cell-based
# Conditions: inhibition of cAMP production in CHO-K1 cells stably expressing human CRHR2-alpha, EC90 of human urocortin2 as agonist; read-out: IC50 against CRHR2
# Procedure: cAMP functional assay for human CRHR2 The ability of the compounds of this invention to inhibit either CRHR2 is assessed by 3′,5′-cyclic adenosine monophosphate (cAMP) production in cells using the LANCE Ultra cAMP assay kit (ParkinElmer), which are designed based on the homogeneous time-resolved fluorescence resonance energy transfer (TR-FRET) immunoassay.
# CHO-K1 (Chinese hamster ovary) cells stably expressing human CRHR2-alpha (DiscoveRX, Cat. 95-0048C2) are grown in HAM's F12 media supplemented with 10% fetal bovine serum (FBS), 100 units/mL penicillin G, 100 microg/mL hygromycin and 0.5 microg/mL geneticin at 37° C. in 5% CO2 humidified incubator to 80% confluence. After 7 hours starvation treatment in culture media containing 0.1% FBS, the cells are washed with Hanks balanced salt solution (HBSS) and cryopreserved.
# For cAMP assay, frozen cells are thawed and washed with HBSS, followed by resuspending cells in assay buffer (HBSS containing 0.1% bovine serum albumin, 0.5 mM isobutylmethylxanthine and 5 mM Hepes, pH 7.4) at the appropriate concentration for the assay. The cell suspensions are plated on 384-well microplates (Greiner Bio-One) at a density of 4,000 cells per well. After preincubating the cells with various concentrations of the compounds for 30 min at 25° C., an assay buffer containing EC90 concentration of agonist is added and the cells are incubated for 30 min at 25° C. Human urocortin2 (Peptide Institute) is used as agonists for CRHR2. For the termination of assay, europium-labeled cAMP tracer and ULight (registered trademark) dye labeled cAMP antibodies, both prepared with Lance-Ultra cAMP detection reagent (PerkinElmer) are added in the plate and incubate for 60 min at 25° C. After incubation, TR-FRET signal is detected by EnVision plate reader (PerkinElmer). The IC50 values for compounds are calculated from dose-response curves by fitting the percent inhibition using XLfit (ID Business Solutions).
row,SMILES,IC50 [nM]
1,"Cc1ncc(Cl)cc1C(=O)N[C@H]1CC[C@H](CN2C(=O)C(O)(c3cc(F)cc(F)c3F)c3ccccc32)CC1 (some centres unmarked) [Example 132, 5-chloro-N-((1r,4r)-4-((3-hydroxy-2-oxo-3-(2,3,5-trifluorophenyl)indolin-1-yl)methyl)cyclohexyl)-2-methylnicotinamide]",< 200
2,"O=C(N[C@H]1CC[C@H](CN2C(=O)C(O)(c3cc(F)cc(F)c3F)c3ccccc32)CC1)c1cc(Cl)cnc1C(F)F (some centres unmarked) [Example 133, 5-chloro-2-(difluoromethyl)-N-((1r,4r)-4-((3-hydroxy-2-oxo-3-(2,3,5-trifluorophenyl)indolin-1-yl)methyl)cyclohexyl) nicotinamide]",< 200
3,"O=C(N[C@H]1CC[C@H](CN2C(=O)C(O)(c3ccc(F)c(F)c3F)c3ccccc32)CC1)c1cc(Cl)cnc1C(F)F (some centres unmarked) [Example 135, 5-chloro-2-(difluoromethyl)-N-((1r,4r)-4-((3-hydroxy-2-oxo-3-(2,3,4-trifluorophenyl)indolin-1-yl)methyl)cyclohexyl) nicotinamide]",< 200
4,"COc1ccc(C2(O)C(=O)N(C[C@H]3CC[C@H](NC(=O)c4cc(Cl)cnc4C)CC3)c3ccccc32)c(F)c1F (some centres unmarked) [Example 139, 5-chloro-N-((1r,4r)-4-((3-(2,3-difluoro-4-methoxyphenyl)-3-hydroxy-2-oxoindolin-1-yl)methyl)cyclohexyl)-2-methylnicotinamide]",< 200
5,"O=C(N[C@H]1CC[C@H](CN2C(=O)C(O)(c3ccc(Cl)cn3)c3c(F)cccc32)CC1)c1cc(Cl)cnc1C(F)F (some centres unmarked) [Example 140, 5-chloro-N-((1r,4r)-4-((3-(5-chloropyridin-2-yl)-4-fluoro-3-hydroxy-2-oxoindolin-1-yl)methyl)cyclohexyl)-2-(difluoromethyl)nicotinamide]",< 200
6,"Cc1ncc(Cl)cc1C(=O)N[C@H]1CC[C@H](CN2C(=O)C(O)(c3cccc(F)c3F)c3ccc(F)cc32)CC1 (some centres unmarked) [Example 143, 5-chloro-N-((1r,4r)-4-((3-(2,3-difluorophenyl)-6-fluoro-3-hydroxy-2-oxoindolin-1-yl)methyl)cyclohexyl)-2-methylnicotinamide]",< 200
7,"Cc1ccc2c(c1)N(C[C@H]1CC[C@H](NC(=O)c3cc(Cl)cnc3C(F)F)CC1)C(=O)C2(O)c1ccccc1F (some centres unmarked) [Example 148, 5-chloro-2-(difluoromethyl)-N-((1r,4r)-4-((3-(2-fluorophenyl)-3-hydroxy-6-methyl-2-oxoindolin-1-yl)methyl)cyclohexyl) nicotinamide]",< 200
8,"Cc1ccc2c(c1)N(C[C@H]1CC[C@H](NC(=O)c3cc(Cl)cnc3C(F)F)CC1)C(=O)C2(O)c1ccncc1F (some centres unmarked) [Example 149, 5-chloro-2-(difluoromethyl)-N-((1r,4r)-4-((3-(3-fluoropyridin-4-yl)-3-hydroxy-6-methyl-2-oxoindolin-1-yl)methyl)cyclohexyl) nicotinamide]",< 200
9,"COc1ccc(F)c(C2(O)C(=O)N(C[C@H]3CC[C@H](NC(=O)c4cc(Cl)cnc4C(F)F)CC3)c3cc(F)ccc32)c1 (some centres unmarked) [Example 156, 5-chloro-2-(difluoromethyl)-N-((1r,4r)-4-((6-fluoro-3-(2-fluoro-5-methoxyphenyl)-3-hydroxy-2-oxoindolin-1-yl)methyl)cyclohexyl) nicotinamide]",< 200
10,"COc1cccc2c1C(O)(c1cccc(F)c1F)C(=O)N2C[C@H]1CC[C@H](NC(=O)c2cc(Cl)cnc2C(F)F)CC1 (some centres unmarked) [Example 158, 5-chloro-2-(difluoromethyl)-N-((1r,4r)-4-((3-(2,3-difluorophenyl)-3-hydroxy-4-methoxy-2-oxoindolin-1-yl)methyl)cyclohexyl) nicotinamide]",< 200
11,"Cc1ncc(Cl)cc1C(=O)N[C@H]1CC[C@H](CN2C(=O)C(O)(c3cccc(F)c3F)c3cc(F)ccc32)CC1 (some centres unmarked) [Example 162, 5-chloro-N-((1r,4r)-4-((3-(2,3-difluorophenyl)-5-fluoro-3-hydroxy-2-oxoindolin-1-yl)methyl)cyclohexyl)-2-methylnicotinamide]",< 200

# Reference: US12421191B2, “3-hydroxyoxindole derivatives as CRHR2 antagonist” (RaQualia Pharma Inc., priority 2020, dated 2025)
